Where two headings read alike, the source gives them in different places.
Tests used:
ATR kinase = target: T1, ATR kinase (Homo sapiens, UniProt Q13535); experiment: Inhibitory effect on ATR kinase activity (Caliper mobility shift, FAM-labeled RAD17 peptide substrate); assay type: biochemical
T1 construct: purchased Eurofins 14-953
Summary of the method: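 Caliper mobility-shift assay with 1 nM ATR, FAM-labeled RAD17 peptide […] and 5 mM ATP in HEPES pH 7.5 with 10 mM MnCl2, run 3 h at 28 °C and stopped with EDTA. Compounds were tested in 10-point 3-fold dilutions from 1 µM. IC50 was fitted from % inhibition of substrate conversion versus blank control.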

LoVo cells = experiment: LoVo cell proliferation assay (CellTiter-Glo); assay type: cell-based; details: Homo sapiens, LoVo, 120 h, maximum concentration 10 µM, 9 concentrations
Summary of the method: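 LoVo cells, 2,000 per well, were treated after overnight attachment with 9-point 3-fold dilutions from 10 µM for 5 days at 37 °C. Viability was read by CellTiter-Glo luminescence. Inhibition % was taken relative to DMSO control, and IC50 came from the concentration–inhibition curve.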

[1] = read-out: ATR kinase IC50, 1 nM ATR kinase (Eurofins), 28°C for 3 hours, maximum concentration 1 µM, 10 concentrations
[2] = read-out: LoVo IC50 (nM), LoVo cells, 2,000 cells per well, 5 days incubation, CellTiter-Glo
[3] = 1 nM ATR kinase (Eurofins), 28°C for 3 hours, maximum concentration 1 µM, 10 concentrations, read-out: ATR kinase IC50
[4] = LoVo cells, 2,000 cells per well, 5 days incubation, CellTiter-Glo, read-out: LoVo IC50

T1 sequence (Q13535 whole entry): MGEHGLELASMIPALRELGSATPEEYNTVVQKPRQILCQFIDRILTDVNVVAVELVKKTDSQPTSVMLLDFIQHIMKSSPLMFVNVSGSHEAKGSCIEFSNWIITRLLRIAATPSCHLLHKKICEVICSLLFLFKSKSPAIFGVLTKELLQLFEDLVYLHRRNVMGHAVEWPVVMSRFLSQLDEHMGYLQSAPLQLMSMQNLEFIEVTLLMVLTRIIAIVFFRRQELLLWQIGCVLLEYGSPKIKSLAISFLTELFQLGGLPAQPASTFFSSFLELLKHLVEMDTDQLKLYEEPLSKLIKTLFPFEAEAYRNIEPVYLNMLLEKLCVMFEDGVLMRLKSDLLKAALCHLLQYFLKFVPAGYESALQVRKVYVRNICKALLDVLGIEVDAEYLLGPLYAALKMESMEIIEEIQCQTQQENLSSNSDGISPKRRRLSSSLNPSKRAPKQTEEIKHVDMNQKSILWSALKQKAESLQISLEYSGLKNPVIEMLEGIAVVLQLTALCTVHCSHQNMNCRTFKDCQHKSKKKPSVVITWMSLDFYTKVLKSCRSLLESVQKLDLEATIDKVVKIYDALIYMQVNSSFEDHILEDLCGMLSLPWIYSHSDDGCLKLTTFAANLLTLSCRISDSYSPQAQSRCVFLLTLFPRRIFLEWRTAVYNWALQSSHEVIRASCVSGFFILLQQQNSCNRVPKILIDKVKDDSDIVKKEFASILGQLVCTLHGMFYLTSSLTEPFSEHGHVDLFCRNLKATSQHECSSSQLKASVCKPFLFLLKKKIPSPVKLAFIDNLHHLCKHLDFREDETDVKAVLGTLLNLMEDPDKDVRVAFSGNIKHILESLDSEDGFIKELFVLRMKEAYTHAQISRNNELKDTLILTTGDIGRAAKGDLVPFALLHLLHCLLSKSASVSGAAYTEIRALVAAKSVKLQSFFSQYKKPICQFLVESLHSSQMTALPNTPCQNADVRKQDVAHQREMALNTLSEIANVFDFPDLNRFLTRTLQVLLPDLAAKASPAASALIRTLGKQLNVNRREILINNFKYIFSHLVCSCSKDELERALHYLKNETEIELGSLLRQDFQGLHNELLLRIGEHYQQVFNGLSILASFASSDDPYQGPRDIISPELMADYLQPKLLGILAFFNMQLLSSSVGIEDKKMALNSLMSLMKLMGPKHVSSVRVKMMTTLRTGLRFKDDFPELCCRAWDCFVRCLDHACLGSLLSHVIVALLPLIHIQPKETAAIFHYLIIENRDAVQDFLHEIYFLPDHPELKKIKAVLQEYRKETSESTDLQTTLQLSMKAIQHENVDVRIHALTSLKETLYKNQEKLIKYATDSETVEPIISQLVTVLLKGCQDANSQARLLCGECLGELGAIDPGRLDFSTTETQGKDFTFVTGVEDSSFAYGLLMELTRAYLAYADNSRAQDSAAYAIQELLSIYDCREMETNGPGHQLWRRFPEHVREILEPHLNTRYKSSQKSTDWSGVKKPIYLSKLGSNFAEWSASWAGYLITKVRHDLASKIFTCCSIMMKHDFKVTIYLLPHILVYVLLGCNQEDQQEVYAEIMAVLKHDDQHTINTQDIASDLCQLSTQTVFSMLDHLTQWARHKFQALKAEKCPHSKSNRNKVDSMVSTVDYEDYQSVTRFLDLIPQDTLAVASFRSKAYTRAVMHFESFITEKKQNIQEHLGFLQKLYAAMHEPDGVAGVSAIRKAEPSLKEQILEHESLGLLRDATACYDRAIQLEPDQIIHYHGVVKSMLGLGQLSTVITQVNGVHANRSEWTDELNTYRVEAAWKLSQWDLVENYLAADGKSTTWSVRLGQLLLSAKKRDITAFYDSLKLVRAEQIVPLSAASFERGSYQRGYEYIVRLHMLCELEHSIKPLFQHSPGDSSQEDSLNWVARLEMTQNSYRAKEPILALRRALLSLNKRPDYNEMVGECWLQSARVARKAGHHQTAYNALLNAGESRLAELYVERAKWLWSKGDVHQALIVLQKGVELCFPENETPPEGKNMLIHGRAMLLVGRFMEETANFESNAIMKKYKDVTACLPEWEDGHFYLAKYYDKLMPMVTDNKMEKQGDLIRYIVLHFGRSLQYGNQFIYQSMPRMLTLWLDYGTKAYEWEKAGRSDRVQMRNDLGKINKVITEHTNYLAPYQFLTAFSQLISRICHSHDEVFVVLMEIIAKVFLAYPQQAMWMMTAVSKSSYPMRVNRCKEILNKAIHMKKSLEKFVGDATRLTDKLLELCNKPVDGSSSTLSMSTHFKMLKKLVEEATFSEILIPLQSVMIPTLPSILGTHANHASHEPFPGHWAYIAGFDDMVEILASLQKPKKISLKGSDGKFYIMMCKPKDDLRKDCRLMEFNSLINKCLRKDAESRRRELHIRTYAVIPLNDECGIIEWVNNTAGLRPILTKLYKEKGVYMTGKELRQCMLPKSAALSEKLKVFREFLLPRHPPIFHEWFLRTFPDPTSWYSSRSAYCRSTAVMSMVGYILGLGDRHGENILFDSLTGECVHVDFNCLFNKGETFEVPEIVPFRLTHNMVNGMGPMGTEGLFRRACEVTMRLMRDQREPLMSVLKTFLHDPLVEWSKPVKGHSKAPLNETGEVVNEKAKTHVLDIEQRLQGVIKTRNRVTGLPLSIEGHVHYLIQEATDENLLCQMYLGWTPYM
T1 sequence (Q8WXE1 whole entry partner): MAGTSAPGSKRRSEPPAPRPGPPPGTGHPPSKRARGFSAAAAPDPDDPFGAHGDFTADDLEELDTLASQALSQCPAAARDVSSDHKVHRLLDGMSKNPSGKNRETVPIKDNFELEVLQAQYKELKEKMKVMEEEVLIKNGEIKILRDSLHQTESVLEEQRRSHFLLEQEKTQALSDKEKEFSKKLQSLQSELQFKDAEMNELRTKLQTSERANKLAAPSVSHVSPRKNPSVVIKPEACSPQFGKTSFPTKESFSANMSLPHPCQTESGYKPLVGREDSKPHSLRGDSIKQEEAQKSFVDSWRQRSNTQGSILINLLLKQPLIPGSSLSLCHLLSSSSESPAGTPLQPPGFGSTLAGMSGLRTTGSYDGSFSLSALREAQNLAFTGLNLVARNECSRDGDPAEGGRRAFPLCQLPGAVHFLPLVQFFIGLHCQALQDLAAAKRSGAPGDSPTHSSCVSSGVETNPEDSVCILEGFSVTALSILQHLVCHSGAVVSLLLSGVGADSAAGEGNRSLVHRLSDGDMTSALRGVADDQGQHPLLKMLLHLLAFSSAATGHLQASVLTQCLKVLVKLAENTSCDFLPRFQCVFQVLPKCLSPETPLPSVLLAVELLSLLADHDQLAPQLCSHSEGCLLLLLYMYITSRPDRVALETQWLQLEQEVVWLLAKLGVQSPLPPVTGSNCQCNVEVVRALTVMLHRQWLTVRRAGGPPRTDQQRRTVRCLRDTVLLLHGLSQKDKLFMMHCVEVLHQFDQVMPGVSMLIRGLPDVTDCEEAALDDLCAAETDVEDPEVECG

Row | IC50 (ATR kinase; [3]) [nM] | IC50 (LoVo cells; [4]) [nM] | SMILES | IC50 (ATR kinase; [1]) [nM] | IC50 (LoVo cells; [2]) [nM] | IC50 (ATR kinase; ATR kinase IC50 (nM), 1 nM ATR kinase (Eurofins), 28°C for 3 hours, maximum concentration 1 µM, 10 concentrations) [nM]
1 |  |  | C[C@@H]1COCCN1c1cc2c3c(n1)c(-c1cc[nH]n1)nn3CCC(=O)N2C1CC(F)(F)C1 [Compound 109, (R)-6-(3,3-difluorocyclobutyl)-4-(3-methylmorpholinyl)-2-(1H-pyrazol-3-yl)-8,9-dihydro-1,3,6,9a-tetraazabenzo[cd]azulene-7(6H)-one] | 10 to 100 | 100 to 1000 | 
2 |  |  | C[C@@H]1COCCN1c1cc2c3c(n1)c(-c1cc[nH]n1)nn3CCC(=O)N2C12CC(C1)C2 [Compound 110, (R)-6-(bicyclo[1.1.1]pentan-1-yl)-4-(3-methylmorpholinyl)-2-(1H-pyrazol-3-yl)-8,9-dihydro-1,3,6,9a-tetraazabenzo[cd]azulene-7(6H)-one] | < 10 | < 100 | 
3 |  |  | C[C@@H]1COCCN1c1cc2c3c(n1)c(-c1cc[nH]n1)nn3CCC(=O)N2C1(CF)CC1 [Compound 112, (R)-6-(1-(fluoromethyl)cyclopropyl)-4-(3-methylmorpholinyl)-2-(1H-pyrazol-3-yl)-8,9-dihydro-1,3,6,9a-tetraazabenzo[cd]azulene-7(6H)-one] | < 10 | < 100 | 
4 |  |  | COCC1(N2C(=O)CCn3nc(-c4cc[nH]n4)c4nc(N5CCOC[C@H]5C)cc2c43)CC1 [Compound 113, (R)-6-(1-(methoxymethyl)cyclopropyl)-4-(3-methylmorpholinyl)-2-(1H-pyrazol-3-yl)-8,9-dihydro-1,3,6,9a-tetraazabenzo[cd]azulene-7(6H)-one] | 10 to 100 | 100 to 1000 | 
5 |  |  | C[C@@H]1COCCN1c1cc2c3c(n1)c(-c1cc[nH]n1)nn3CCC(=O)N2C1(CO)CC1 [Compound 114, (R)-6-(1-(hydroxymethyl)cyclopropyl)-4-(3-methylmorpholinyl)-2-(1H-pyrazol-3-yl)-8,9-dihydro-1,3,6,9a-tetraazabenzo[cd]azulene-7(6H)-one] | < 10 | 100 to 1000 | 
6 |  |  | C[C@@H]1COCCN1c1cc2c3c(n1)c(-c1cc[nH]n1)nn3CCC(=O)N2CC12CC(F)(C1)C2 [Compound 115, (R)-6-((3-fluorobicyclo[1.1.1]pentan-1-yl)methyl)-4-(3-methylmorpholinyl)-2-(1H-pyrazol-3-yl)-8,9-dihydro-1,3,6,9a-tetraazabenzo[cd]azulene-7(6H)-one] | < 10 | < 100 | 
7 |  |  | C[C@@H]1COCCN1c1cc2c3c(n1)c(-c1cc[nH]n1)nn3CCC(=O)N2CC1(C#N)CC1 [Compound 116, (R)-1-((4-(3-methylmorpholinyl)-7-oxo-2-(1H-pyrazol-3-yl)-8,9-dihydro-1,3,6,9a-tetraazabenzo[cd]azulene-6(7H)-yl)methyl)cyclopropane-1-carbonitrile] | 10 to 100 | 100 to 1000 | 
8 | 10 to 100 | 100 to 1000 | CC1Cn2nc(-c3cc[nH]n3)c3nc(N4CCOC[C@H]4C)cc(c32)N(C(C)C)C1=O (stereo partly drawn) [Compound 119, 6-isopropyl-8-methyl-4-((R)-3-methylmorpholino)-2-(1H-pyrazol-3-yl)-8,9-dihydro-1,3,6,9a-tetraazabenzo[cd]azulene-7(6H)-one] |  |  | 
9 | 10 to 100 | 100 to 1000 | CC(C)N1CCCn2nc(-c3cc[nH]n3)c3nc(N4CCOC[C@H]4C)cc1c32 [Compound 120, (R)-4-(6-isopropyl-2-(1H-pyrazol-3-yl)-6,7,8,9-tetrahydro-1,3,6,9a-tetraazabenzo[cd]azulen-4-yl)-3-methylmorpholine] |  |  | 
10 | 10 to 100 | < 100 | C[C@@H]1COCCN1c1cc2c3c(n1)c(-c1cc[nH]n1)nn3CCCN2S(C)(=O)=O [Compound 121, (R)-3-methyl-4-(6-(methylsulfonyl)-2-(1H-pyrazol-3-yl)-6,7,8,9-tetrahydro-1,3,6,9a-tetraazabenzo[cd]azulen-4-yl)morpholine] |  |  | 
11 | 10 to 100 | 100 to 1000 | C[C@@H]1COCCN1c1cc2c3c(n1)c(-c1cc[nH]n1)nn3CCCN2C1CC1 [Compound 122, (R)-4-(6-cyclopropyl-2-(1H-pyrazol-3-yl)-6,7,8,9-tetrahydro-1,3,6,9a-tetraazabenzo[cd]azulen-4-yl)-3-methylmorpholine] |  |  | 
12 |  |  | C[C@@H]1COCCN1c1cc2c3c(n1)c(-c1cc[nH]n1)nn3CCCN2CC(C)(C)O [Compound 123, (R)-2-methyl-1-(4-(3-methylmorpholinyl)-2-(1H-pyrazol-3-yl)-8,9-dihydro-1,3,6,9a-tetraazabenzo[cd]azulene-6(7H)-yl)propan-2-ol] | 10 to 100 | 100 to 1000 | 
13 | 10 to 100 | < 100 | C[C@@H]1COCCN1c1cc2c3c(nn(-c4cc[nH]n4)c3n1)CCN(C1CC1)C2=O [Compound 132, (R)-7-cyclopropyl-4-(3-methylmorpholino)-2-(1H-pyrazol-3-yl)-2,7,8,9-tetrahydro-6H-1,2,3,7-tetraazabenzo[cd]azulene-6-one] |  |  | 
14 | 10 to 100 | < 100 | C[C@@H]1COCCN1c1cc2c3c(nn(-c4cc[nH]n4)c3n1)CCN(C1COC1)C2C1CC1 (stereo partly drawn) [Compound 135, (3R)-4-(6-cyclopropyl-7-(oxetan-3-yl)-2-(1H-pyrazol-3-yl)-6,7,8,9-tetrahydro-2H-1,2,3,7-tetraazabenzo[cd]azulen-4-yl)-3-methylmorpholine] |  |  | 
15 | 10 to 100 | < 100 | CC(C)C1c2cc(N3CCOC[C@H]3C)nc3c2c(nn3-c2cc[nH]n2)CCN1C1COC1 (stereo partly drawn) [Compound 136, (3R)-4-(6-isopropyl-7-(oxetan-3-yl)-2-(1H-pyrazol-3-yl)-6,7,8,9-tetrahydro-2H-1,2,3,7-tetraazabenzo[cd]azulen-4-yl)-3-methylmorpholine] |  |  | 
16 |  |  | C[C@@H]1COCCN1c1cc2c3c(nn(-c4cc[nH]n4)c3n1)CCN(C13CC(C1)C3)C2=O [Compound 139, (R)-7-(bicyclo[1.1.1]pentan-1-yl)-4-(3-methylmorpholinyl)-2-(1H-pyrazol-3-yl)-2,7,8,9-tetrahydro-6H-1,2,3,7-tetraazabenzo[cd]azulene-6-one] | < 10 | 100 to 1000 | 
17 | < 10 | < 100 | C[C@@H]1COCCN1c1cc2c3c(nn(-c4cc[nH]n4)c3n1)CCOC2(C)C [Compound 146, (R)-6,6-dimethyl-4-(3-methylmorpholino)-2-(1H-pyrazol-3-yl)-2,6,8,9-tetrahydro-7-oxa-1,2,3-triazabenzo[cd]azulene] |  |  | 
18 |  |  | C[C@@H]1COCCN1c1cc2c3c(nn(-c4cc[nH]n4)c3n1)CCOC21CCC1 [Compound 147, (R)-4-(3-Methylmorpholino)-2-(1H-pyrazol-3-yl)-8,9-dihydro-2H-7-oxa-1,2,3-triazaspiro[benzo[cd]azulene-6,1'-cyclobutane]-1(9a),2a,2a1(5a),4-tetraene] |  | < 100 | < 10
19 | < 10 | < 100 | C[C@@H]1COCCN1c1cc2c3c(nn(-c4cc[nH]n4)c3n1)CCN(C)C2(C)C [Compound 149, (R)-3-methyl-4-(6,6,7-trimethyl-2-(1H-pyrazol-3-yl)-6,7,8,9-tetrahydro-2H-1,2,3,7-tetraazabenzo[cd]azulen-4-yl)morpholine] |  |  | 
20 |  |  | CC1c2cc(N3CCOC[C@H]3C)nc3c2c(nn3-c2cc[nH]n2)CCN1S(C)(=O)=NC1CC1 (stereo partly drawn) [Compound 153, (3R)-4-(7-(N-cyclopropyl-S-methylsulfonylimino)-6-methyl-2-(1H-pyrazol-3-yl)-6,7,8,9-tetrahydro-2H-1,2,3,7-tetraazabenzo[cd]azulen-4-yl)-3-methylmorpholine] | 10 to 100 | 100 to 1000 | 
21 | < 10 | < 100 | C[C@@H]1COCCN1c1cc2c3c(nc(-c4cc[nH]n4)n3n1)CCC(=O)N2C1(C)CC1 [Compound 154, (R)-6-(1-methylcyclopropyl)-4-(3-methylmorpholino)-2-(1H-pyrazol-3-yl)-8,9-dihydro-1,2a,3,6-tetraazabenzo[cd]azulene-7(6H )-one] |  |  | 

Reference: patent EP4692090A1 (Shanghai Fosun Pharmaceutical (Group) Co., Ltd., priority 2023, dated 2024)
